# “And” between values parts separate entries of the source, which are not always exact repeats. Equal entries are not always repeated. Where two headings read alike, the source gives them in different places.
# Key:
# [1] = tested on: CD34 positive progenitor cells; conditions: human volunteers; single s.c. 80 μg/kg
# Description: (§1) Five healthy human volunteers having initial white blood cell counts of 4,500-7,500 cells/mm^3 were used in the study. […] Blood samples were obtained via catheter prior to the dose, and at various times up to 24 hours after dosing.
# (§2) The blood samples were evaluated for total white blood cells, CD34 positive progenitor cells (via FACS analysis) as a percentage of total white blood cells, as well as the absolute numbers per mL and cycling status of granulocyte macrophage (CFU-GM), erythroid (BFU-E), and multipotential (CFU-GEMM) progenitor cells.
# white blood cells = conditions: single s.c. 80 μg/kg
# Description: as §1, §2
# [2] = tested on: nucleated cells per ml of blood; conditions: average of 5 donors, s.c. 80 μg/kg
# Description: as §1
# (§3) All progenitor cell results are based on the scoring of 3 culture plates per assay per point.
# CFU-GM progenitor cells = conditions: donors' mean, s.c. 80 μg/kg
# Description: as §3
# (§4) For the progenitor cell numbers and cycling status, the numbers of CFU-GM, BFU-E and CFU-GEMM in methylcellulose cultures by stimulation of the cells with 1 Unit (U)/ml recombinant human (rhu) erythropoietin, 100 U/ml rhu granulocyte-macrophage colony stimulating factor (GM-CSF), 100 U/ml rhu interleukin-3 (IL-3) and 50 ng/ml rhu steel factor (SLF=stem cell factor (SCF)). The CFU-GM were also evaluated in agar cultures stimulated with 100 U/ml rhu GM-CSF and 50 ng/ml rhu SLF. For both types of assays, colonies were scored after 14 day incubation in a humidified atmosphere with 5% CO2 and lowered (5%) O2 tension. Cell cycling status of progenitors was measured using a high specific activity tritiated thymidine kill technique as previously described (Broxmeyer, H. E., et al., Exp. Hematol. (1989) 17:455-459).
# [3] = tested on: CFU-GM, BFU-E and CFU-GEMM progenitor cells; conditions: s.c. 80 μg/kg; for mean fold change vs T=0, methylcellulose culture BFU-E, MEAN / mean fold change vs T=0, methylcellulose culture CFU-GEMM, MEAN / mean fold change vs T=0, methylcellulose culture CFU-GM, MEAN / methylcellulose culture BFU-E, % CHG / methylcellulose culture CFU-GEMM, % CHG / methylcellulose culture CFU-GM, % CHG: 5 donors
# Description: as §3, §4
# [4] = tested on: progenitors in DNA synthesis (S) phase of the cell cycle; conditions: for BFU-E Cycling Status of Progenitors / CFU-GEMM Cycling Status of Progenitors / CFU-GM Cycling Status of Progenitors: % progenitors in S phase; for BFU-E Cycling Status of Progenitors / CFU-GEMM Cycling Status of Progenitors / CFU-GM Cycling Status of Progenitors / AGAR Culture CFU-GM Cycling Status of Progenitors: s.c. 80 μg/kg
# Description: as §4
# ischemic hind limb = assay: Tissue regeneration in diabetic animal ischemic model: limb blood flow restoration, LASER Doppler; type: in vivo, male nude Hfh11 mice; conditions: diabetic mice
# Description: Three to four weeks after injection of STZ the left hind limb was made ischemic by ligation of the iliac artery and removal of a 0.5-1 cm segment distal to the ligation.
# One group of additional mice (n=11) was injected intramuscularly into the ischemic hindlimb with human non-diabetic-derived unmobilized CD34+ (unCD34+) peripheral blood mononuclear cells (PBMCs), two to four hours after surgery. […] Untreated mice served as controls (n=10).
# Limb blood flow restoration was analyzed immediately before and after surgery and at various times thereafter in the entire limb distal to the ligation using LASER Doppler analysis.
# progenitor cells = conditions: AMD3100 5 mg/Kg s.c. plus MIP-1α 5 μg I.V., 11 hours after rhu G-CSF or saline, 1 hour prior to assessing the blood
# Description: Groups of mice were randomized to receive control diluent (saline) or G-CSF at a dose of 2.5 μg per mouse, twice a day, for two days via s.c. injection. […] One hour later, the mice were sacrificed and the number of progenitor cells per mL of blood were measured.
# bone marrow stem cells = conditions: rats; coronary ligation; injected within 4 to 6 hours, with or without rhG-CSF
# Description: Adult rats are anesthetized and a thoracotomy is performed. The descending branch of the left coronary artery is ligated and not reperfused. […] Control rats are not treated with the reagents. The animals are monitored at one-week intervals by echocardiography and MRI. The experiment is terminated at 2, 6 to 12 weeks post-surgery. On the day of sacrifice, the hemodynamic functions are analyzed for left ventricle-end diastolic pressure, left ventricle-developed pressure and the rate of rise and fall of left ventricle pressure. The heart is then arrested in diastole and perfused via the abdominal aorta to flush residual blood from the vascular network of the myocardium. This is followed by perfusion of the heart with 10% formalin. Several slices are made through the fixed heart and these are embedded in paraffin and sections. The sections are stained and analyzed by light microscopy to determine the size of the infarct in the treated and control animals. Tissue sections from hearts taken at 2 weeks after surgery are stained with antibodies specific for immature, developing myocyte and blood vessel proteins and analyzed by confocal microscopy. The immunohistochemical analysis involves the identification of transcription factors and surface markers expressed in early stages of myocyte development.
# WBC = conditions: Phase 1 study; single dose of 80 μg/kg; cited from earlier work
# [5] = tested on: circulating CD34+ progenitor/stem cells; conditions: Phase 1 study; single dose of 80 μg/kg; 6 hour time point; cited from earlier work
# [6] = individual donors P1-P5, T = 1 hour
# [7] = individual donors P1-P5, T = 3 hours
# [8] = individual donors P1-P5, T = 6 hours
# [9] = individual donors P1-P5, T = 9 hours
# [10] = individual donors P1-P5, T = 24 hours
# [11] = ischemic hind limb, 5 mg/kg intraperitoneally on days 0 and 2
compound,measurement,setting,value
"c1cc(CN2CCCNCCNCCCNCC2)ccc1CN1CCCNCCNCCCNCC1 [AMD3100, 1,1′-[1,4-phenylene-bis(methylene)]-bis-1,4,8,11-tetraazacyclotetradecane]",time post-administration at which elevation of CD34 positive progenitor cells maximized,[1],6 h
same,time post-administration at which elevation of the white blood cell count maximized,white blood cells; human volunteers,6 h
same,mobilization of white blood cells in individual volunteers,"white blood cells; 2 Hr, volunteers P1-P5",12.4 × 10^3 WBC's and 21.4 × 10^3 WBC's and 13.5 × 10^3 WBC's
same,"Fold Change Compared to TIME = 0, nucleated cellularity PBL-LD, MEAN",[2]; T = 1 hour,1.86
same,"Fold Change Compared to TIME = 0, nucleated cellularity PBL-US, MEAN",[2]; T = 1 hour,1.69
same,"nucleated cellularity PBL-LD, % CHG",[2]; T = 1 hour,86.2%
same,"nucleated cellularity PBL-US, % CHG",[2]; T = 1 hour,68.6%
same,"Fold Change Compared to TIME = 0, nucleated cellularity PBL-LD, MEAN",[2]; T = 3 hours,2.86
same,"Fold Change Compared to TIME = 0, nucleated cellularity PBL-US, MEAN",[2]; T = 3 hours,2.80
same,"nucleated cellularity PBL-LD, % CHG",[2]; T = 3 hours,185.6%
same,"nucleated cellularity PBL-US, % CHG",[2]; T = 3 hours,180.2%
same,"Fold Change Compared to TIME = 0, nucleated cellularity PBL-LD, MEAN",[2]; T = 6 hours,3.66
same,"Fold Change Compared to TIME = 0, nucleated cellularity PBL-US, MEAN",[2]; T = 6 hours,3.26
same,"nucleated cellularity PBL-LD, % CHG",[2]; T = 6 hours,266.3%
same,"nucleated cellularity PBL-US, % CHG",[2]; T = 6 hours,225.8%
same,"Fold Change Compared to TIME = 0, nucleated cellularity PBL-LD, MEAN",[2]; T = 9 hours,3.64
same,"Fold Change Compared to TIME = 0, nucleated cellularity PBL-US, MEAN",[2]; T = 9 hours,3.09
same,"nucleated cellularity PBL-LD, % CHG",[2]; T = 9 hours,264.3%
same,"nucleated cellularity PBL-US, % CHG",[2]; T = 9 hours,209.4%
same,"Fold Change Compared to TIME = 0, nucleated cellularity PBL-LD, MEAN",[2]; T = 24 hours,1.05
same,"Fold Change Compared to TIME = 0, nucleated cellularity PBL-US, MEAN",[2]; T = 24 hours,1.07
same,"nucleated cellularity PBL-LD, % CHG",[2]; T = 24 hours,4.6%
same,"nucleated cellularity PBL-US, % CHG",[2]; T = 24 hours,7.0%
same,"agar culture CFU-GM, % CHG",CFU-GM progenitor cells; T = 1 hour,180.8%
same,"mean fold change vs T=0, agar culture CFU-GM, MEAN",CFU-GM progenitor cells; T = 1 hour,2.81
same,"agar culture CFU-GM, % CHG",CFU-GM progenitor cells; T = 3 hours,754.1%
same,"mean fold change vs T=0, agar culture CFU-GM, MEAN",CFU-GM progenitor cells; T = 3 hours,8.54
same,"agar culture CFU-GM, % CHG",CFU-GM progenitor cells; T = 6 hours,1692.8%
same,"mean fold change vs T=0, agar culture CFU-GM, MEAN",CFU-GM progenitor cells; T = 6 hours,17.93
same,"agar culture CFU-GM, % CHG",CFU-GM progenitor cells; T = 9 hours,924.9%
same,"mean fold change vs T=0, agar culture CFU-GM, MEAN",CFU-GM progenitor cells; T = 9 hours,10.25
same,"agar culture CFU-GM, % CHG",CFU-GM progenitor cells; T = 24 hours,108.3%
same,"mean fold change vs T=0, agar culture CFU-GM, MEAN",CFU-GM progenitor cells; T = 24 hours,2.08
same,"mean fold change vs T=0, methylcellulose culture BFU-E, MEAN",[3]; T = 1 hour,1.99
same,"mean fold change vs T=0, methylcellulose culture CFU-GEMM, MEAN",[3]; T = 1 hour,2.32
same,"mean fold change vs T=0, methylcellulose culture CFU-GM, MEAN",[3]; T = 1 hour,4.77
same,"methylcellulose culture BFU-E, % CHG",[3]; T = 1 hour,98.9%
same,"methylcellulose culture CFU-GEMM, % CHG",[3]; T = 1 hour,131.8%
same,"methylcellulose culture CFU-GM, % CHG",[3]; T = 1 hour,376.7%
same,"mean fold change vs T=0, methylcellulose culture BFU-E, MEAN",[3]; T = 3 hours,3.21
same,"mean fold change vs T=0, methylcellulose culture CFU-GEMM, MEAN",[3]; T = 3 hours,4.33
same,"mean fold change vs T=0, methylcellulose culture CFU-GM, MEAN",[3]; T = 3 hours,13.66
same,"methylcellulose culture BFU-E, % CHG",[3]; T = 3 hours,221.3%
same,"methylcellulose culture CFU-GEMM, % CHG",[3]; T = 3 hours,332.5%
same,"methylcellulose culture CFU-GM, % CHG",[3]; T = 3 hours,1266.5%
same,"mean fold change vs T=0, methylcellulose culture BFU-E, MEAN",[3]; T = 6 hours,6.01
same,"mean fold change vs T=0, methylcellulose culture CFU-GEMM, MEAN",[3]; T = 6 hours,10.07
same,"mean fold change vs T=0, methylcellulose culture CFU-GM, MEAN",[3]; T = 6 hours,21.71
same,"methylcellulose culture BFU-E, % CHG",[3]; T = 6 hours,500.5%
same,"methylcellulose culture CFU-GEMM, % CHG",[3]; T = 6 hours,907.2%
same,"methylcellulose culture CFU-GM, % CHG",[3]; T = 6 hours,2070.6%
same,"mean fold change vs T=0, methylcellulose culture BFU-E, MEAN",[3]; T = 9 hours,4.34
same,"mean fold change vs T=0, methylcellulose culture CFU-GEMM, MEAN",[3]; T = 9 hours,5.25
same,"mean fold change vs T=0, methylcellulose culture CFU-GM, MEAN",[3]; T = 9 hours,10.47
same,"methylcellulose culture BFU-E, % CHG",[3]; T = 9 hours,334.4%
same,"methylcellulose culture CFU-GEMM, % CHG",[3]; T = 9 hours,425.4%
same,"methylcellulose culture CFU-GM, % CHG",[3]; T = 9 hours,947.3%
same,"mean fold change vs T=0, methylcellulose culture BFU-E, MEAN",[3]; T = 24 hours,1.26
same,"mean fold change vs T=0, methylcellulose culture CFU-GEMM, MEAN",[3]; T = 24 hours,1.53
same,"mean fold change vs T=0, methylcellulose culture CFU-GM, MEAN",[3]; T = 24 hours,1.56
same,"methylcellulose culture BFU-E, % CHG",[3]; T = 24 hours,26.3%
same,"methylcellulose culture CFU-GEMM, % CHG",[3]; T = 24 hours,53.2%
same,"methylcellulose culture CFU-GM, % CHG",[3]; T = 24 hours,55.5%
same,time after injection of maximal fold increases in circulating levels of progenitor cells,[3]; all five human donors,6 h
same,BFU-E Cycling Status of Progenitors,[4]; [6],3% and 0% (4×)
same,CFU-GEMM Cycling Status of Progenitors,[4]; [6],6% and 0% (4×)
same,CFU-GM Cycling Status of Progenitors,[4]; [6],1% and 0% (4×)
same,CFU-GEMM Cycling Status of Progenitors,[4]; [7],0% (4×) and 7%
same,BFU-E Cycling Status of Progenitors,[4]; [8],0% (4×) and 1%
same,CFU-GEMM Cycling Status of Progenitors,[4]; [8],0% (4×) and 8%
same,CFU-GM Cycling Status of Progenitors,[4]; [8],0%
same,BFU-E Cycling Status of Progenitors,[4]; [9],0% (4×) and 11%
same,CFU-GEMM Cycling Status of Progenitors,[4]; [9],4% and 0% (4×)
same,CFU-GM Cycling Status of Progenitors,[4]; [9],2% and 0% (4×)
same,BFU-E Cycling Status of Progenitors,[4]; [10],2% and 0% (3×) and 3%
same,CFU-GEMM Cycling Status of Progenitors,[4]; [10],0%
same,CFU-GM Cycling Status of Progenitors,[4]; [10],0% (3×) and 3% and 5%
same,AGAR Culture CFU-GM Cycling Status of Progenitors,[4]; [6],3% and 0% (4×)
same,AGAR Culture CFU-GM Cycling Status of Progenitors,[4]; [7],0% (4×) and 1%
same,AGAR Culture CFU-GM Cycling Status of Progenitors,[4]; [8],1% and 0% (2×) and 3% (2×)
same,AGAR Culture CFU-GM Cycling Status of Progenitors,"[4]; individual donors P2-P5, T = 9 hours",0%
same,AGAR Culture CFU-GM Cycling Status of Progenitors,"[4]; individual donors P2-P5, T = 24 hours",0%
same,cycling state of progenitors,"[4]; prior to and 1, 3, 6, 9 and 24 hours after injection, human donors",slow or non-cycling state
same,time at which drug induced improvement was observed,ischemic hind limb; [11],two
same,time by which blood flow had reached its maximum,ischemic hind limb; [11],seven
same,"blood flow maintained, mean % of the initial flow (plateau)","ischemic hind limb; ischemic hind limb, 5 mg/kg intraperitoneally on the day of and two days after surgery, mean flow d8-d24",74.6±2.8%
same,overall effect of systemic therapy on blood flow restoration,"ischemic hind limb; ischemic limb, systemic (intraperitoneal) treatment","accelerated blood flow restoration, but did not increase it"
same,mobilization of progenitor cells in combination with mu MIP-1α,progenitor cells,additive to greater than additive
same,expected effect on ischemic myocardium,bone marrow stem cells,will lead to regeneration of the dead myocardium
same,WBC count,WBC,"17,000 /μl"
same,peak increase in circulating CD34+ progenitor/stem cells,[5],6 fold

# Source: patent publication US20100035941A1, “METHODS FOR INCREASING BLOOD FLOW AND/OR PROMOTING TISSUE REGENERATION” (priority 2006, published 2010)
